Experimental findings from US10561666B2, “Amido compounds as RORγt modulators and uses thereof” (New York University, priority 2010, dated 2020) are described below.

pIC50: −log10 of the molar value. Some results are limits rather than exact numbers.

The test system of one assay is mouse Th17 polarization. The assay is described as follows: Mouse Th17 polarization assay (IL-17a producing cells). In kind it is cell-based. The conditions noted are these: for pIC50: naive mouse CD4 T cells, TGFβ and IL6, compounds added Day 1, analyzed Day 4, IL-17a producing cells, read-out: Th 17 IC50. The protocol: Effects of compound derivatives at various concentrations on mouse Th17 polarization. Percentage of DMSO treated IL-17a producing cells was set at 100. Naive mouse CD4 T cells (CD25^−, CD62L^+, and CD44^int-high) were sorted and cultured with CD3/CD28 stimulatory antibodies in the presence of TGFβ (0.1 ng/ml) and IL6 (20 ng/ml). Compounds were added on Day 1 and cells were analyzed on Day 4. For intracellular cytokine staining, cells were incubated for 5 h with phorbol ester (50 ng/ml; Sigma), ionomycin (500 ng/ml; Sigma) and GolgiStop (BD). When needed, surfaces were stained by incubation for 15 min on ice with PECy7-conjugated CD4 (BD Biosciences). The Cytofix/Cytoperm buffer set (BD) was used for intracellular staining. Cells were fixed and made permeable for 30 min on ice and were stained for 30 min on ice in permeabilization buffer with Alexa647-conjugated anti-IL17 (eBioscience) and PE-conjugated anti-IFNg (eBioscience). An LSR II (BD Biosciences) and FlowJo software (Tree Star) were used for flow cytometry. RORg IC50 value acquired from the S2 cell reporter assay is listed for comparison.
Naive CD4 T cells (CD25^−, CD62L^+, and CD44^int-high) were sorted and cultured with CD3/CD28 stimulatory antibodies in the presence of TGFβ (0.1 ng/ml) and IL6 (20 ng/ml). Compounds were added on Day 1 and cells were analyzed on Day 4. For intracellular cytokine staining, cells were incubated for 5 h with phorbol ester (50 ng/ml; Sigma), ionomycin (500 ng/ml; Sigma) and GolgiStop (BD). When needed, surfaces were stained by incubation for 15 min on ice with PECy7-conjugated CD4 (BD Biosciences). The Cytofix/Cytoperm buffer set (BD) or FoxP3 staining kit (eBioscience) were used for intracellular staining. Cells were fixed and made permeable for 30 min on ice and were stained for 30 min on ice in permeabilization buffer with Alexa647-conjugated anti-IL17 (eBioscience), PE-conjugated anti-IFNg (eBioscience), and/or PE-conjugated anti-FoxP3 (eBioscience). An LSR II (BD Biosciences) and FlowJo software (Tree Star) were used for flow cytometry.

The target of a further assay is RORγt (Mus musculus, UniProt P51450, T352K). The assay can be described thus: RORγt S2 cell Gal4-luciferase reporter assay. The conditions noted are these: for Emax: read-out: Efficacy (%). (A reporter such as luciferase makes a cellular process visible.)
Setting [1] is: IC50(μM), Drosophila S2 cells, Gal4-RORγt luciferase reporter, 20 hr.
Setting [2] is: S2 cell RORg IC50 μM, S2 cell reporter assay, listed for comparison.

RORγt, sequence (P51450 with tags, fused parts or gaps T352K): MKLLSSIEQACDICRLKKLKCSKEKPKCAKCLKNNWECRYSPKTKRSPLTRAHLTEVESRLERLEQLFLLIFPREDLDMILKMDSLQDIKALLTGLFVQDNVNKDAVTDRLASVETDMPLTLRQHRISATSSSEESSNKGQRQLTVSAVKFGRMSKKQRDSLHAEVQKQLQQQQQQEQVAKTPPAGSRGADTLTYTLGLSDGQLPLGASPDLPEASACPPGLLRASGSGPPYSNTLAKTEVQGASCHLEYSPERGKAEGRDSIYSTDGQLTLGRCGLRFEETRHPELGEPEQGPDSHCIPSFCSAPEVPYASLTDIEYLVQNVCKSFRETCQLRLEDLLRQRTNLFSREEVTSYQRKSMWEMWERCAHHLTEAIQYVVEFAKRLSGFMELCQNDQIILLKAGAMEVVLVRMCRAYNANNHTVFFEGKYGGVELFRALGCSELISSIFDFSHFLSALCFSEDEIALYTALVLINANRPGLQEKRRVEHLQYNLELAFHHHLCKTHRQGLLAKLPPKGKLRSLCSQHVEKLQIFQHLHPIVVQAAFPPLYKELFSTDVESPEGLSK

Consider `COc1cc(O)c(C(CC(=O)N2CC(C)CC(C)C2)c2ccc(C)cc2)c(OC)c1` (stereo not shown) [Compound 73], for which the pIC50 – broadly, the IC50 on a negative log10 scale, so that one unit is a factor of ten – with mouse Th17 polarization was greater than 6.00.

Take `COc1ccc(C(CC(=O)N2CCCC(C)C2)c2ccc3c(c2)OCO3)c(O)c1` (stereo not shown) [Compound 115]: the pIC50 in the assay on mouse Th17 polarization is less than 4.70.

Regarding `COc1cc(O)c(C(CC(=O)N2CC(C)CC(C)C2)c2ccc3c(c2)OCO3)c(OC)c1` (stereo not shown) [Compound 22], the Emax on RORγt worked out at 97.7%. For the same compound, the negative logarithm of the IC50 (pIC50) with mouse Th17 polarization is greater than 6.00.

Regarding `COc1cc(O)c(C(CC(=O)N2CC(C)CC(C)C2)c2ccc3c(c2)OCCO3)c(OC)c1` (stereo not shown) [Compound 76], the results for the IC50 on RORγt (setting [1]) and on RORγt (setting [2]) were less than 1 µM and 1 to 10 µM, respectively. For the same compound, the Emax at RORγt came out at 95.4%. The negative logarithm of the IC50 (pIC50) with mouse Th17 polarization is greater than 6.00.

Turning to `COc1cc(OC)c(C(CC(=O)N2CCCC(C)C2)c2ccc3c(c2)OCO3)c(OC)c1` (stereo not shown) [Compound 120, 3-(Benzo[d][1,3]dioxol-5-yl)-1-(3-methylpiperidin-1-yl)-3-(2,4,6-trimethoxyphenyl)propan-1-one], the negative logarithm of the IC50 (pIC50) in the assay on mouse Th17 polarization is 5.00 to 6.00.

On to `COc1cc(O)c(C(CC(=O)N2CCCC(C)C2)c2ccc(C)cc2)c(OC)c1` (stereo not shown) [Compound 57], for which the IC50 against RORγt (setting [1]) and against RORγt (setting [2]) was 1 to 10 µM in each case. The Emax on RORγt was found to be 97%. In the assay with mouse Th17 polarization, the pIC50 was 5.00 to 6.00.

Take `COc1cc(O)c(C(CC(=O)N2CCCC(C)(C)C2)c2ccc3c(c2)OCO3)c(OC)c1` (stereo not shown) [Compound 8]: the pIC50 in the assay with mouse Th17 polarization is 5.00 to 6.00.

With `COc1cc(O)c(C(CC(=O)N2CCCCC2)c2ccc3c(c2)OCO3)c(OC)c1` (stereo not shown) [NCGC00166488], the “mouse Th17 cell differentiation, as measured by IL17a production” value in the assay on mouse Th17 polarization (20 μM, compared to DMSO treated cells, FACS (FIG. 3)) is recorded as “suppress mouse Th17 cell differentiation”.

Take `COc1cc(O)c(C(CC(=O)N2CC(C)OC(C)C2)c2ccc3c(c2)OCO3)c(OC)c1` (stereo not shown) [Compound 41]: the negative logarithm of the IC50 (pIC50) in the assay with mouse Th17 polarization was greater than 6.00.

Regarding `COc1cccc(O)c1C(CC(=O)N1CCCC(C)C1)c1ccc2c(c1)OCO2` (stereo not shown) [Compound 121], the pIC50 in the assay on mouse Th17 polarization is less than 4.70.

On to `COc1cc(O)c(C(CC(=O)N2CCC(C)CC2)c2ccc3c(c2)OCO3)c(OC)c1` (stereo not shown) [Compound 1], for which, in the assay with mouse Th17 polarization, the pIC50 is less than 4.70.

Turning to `COc1cc(O)c(C(CC(=O)N2CC(C)CC(C)C2)c2cccc(OC(C)C)c2)c(OC)c1` (stereo not shown) [Compound 94, 1-(3,5-Dimethylpiperidin-1-yl)-3-(2-hydroxy-4,6-dimethoxyphenyl)-3-(3-isopropoxyphenyl)propan-1-one], the IC50 – broadly, the concentration that inhibits the measured activity by half – at RORγt (setting [1]) lay in the range of 1 to 10 µM. For the same compound, at RORγt, the Emax stood at 90.5%.

With `COc1cc(O)c(C(CC(=O)N2CC(C)CC(C)C2)c2ccc(OC(F)(F)F)cc2)c(OC)c1` (stereo not shown) [Compound 96, 1-(3,5-Dimethylpiperidin-1-yl)-3-(2-hydroxy-4,6-dimethoxyphenyl)-3-(4-(trifluoromethoxy)phenyl)propan-1-one], the IC50 at RORγt (setting [1]) was 1 to 10 µM. Further, at RORγt, the Emax came out at 94.8%.

In the case of `COc1cc(OC)c(C(CC(=O)N2CCCC(C)C2)c2ccc3c(c2)OCO3)c(OCc2ccccc2)c1` (stereo not shown) [Compound 124], the IC50 on RORγt (setting [1]) and against RORγt (setting [2]) was 1 to 10 µM in each case. Also, the Emax at RORγt worked out at 94.1%.

For `CC1CC(C)CN(C(=O)CC(c2ccc3c(c2)OCO3)c2cc(F)ccc2O)C1` (stereo not shown) [Compound 145], the IC50 against RORγt (setting [1]) lay within 1 to 10 µM. Besides, the Emax on RORγt was 79.7%.

On to `COc1ccc(C(CC(=O)N2CC(C)CC(C)C2)c2c(O)cc(OC)cc2OC)cc1` (stereo not shown) [Compound 74], for which, in the assay on mouse Th17 polarization, the negative logarithm of the IC50 (pIC50) was greater than 6.00.

Take `COc1cc(O)c(C(CC(=O)N2CC(C)CC(C)C2)c2ccc(Cl)c(Cl)c2)c(OC)c1` (stereo not shown) [Compound 88, 3-(3,4-Dichlorophenyl)-1-(3,5-dimethylpiperidin-1-yl)-3-(2-hydroxy-4,6-dimethoxyphenyl)propan-1-one]: at RORγt (setting [1]), the half-maximal inhibitory concentration (IC50) was in the range of 1 to 10 µM. The Emax at RORγt turned out to be 97.2%.

Turning to `COc1cc(O)c(C(CC(=O)N2CC(C)CC(C)C2)c2cccc(F)c2)c(OC)c1` (stereo not shown) [Compound 102], the IC50 at RORγt (setting [1]) lay in the range of 1 to 10 µM. Besides, on RORγt, the Emax came out at 99.9%.

Regarding `CC1CC(C)CN(C(=O)CC(c2ccc3c(c2)OCO3)c2c(O)ccc3ccccc23)C1` (stereo not shown) [Compound 138], in the assay on mouse Th17 polarization, the pIC50 was 5.00 to 6.00.

In the case of `COc1cc(O)c(C(CC(=O)N2CC(C)CC(C)C2)c2ccc(C(C)(C)C)cc2)c(OC)c1` (stereo not shown) [Compound 89, 3-(4-tert-Butylphenyl)-1-(3,5-dimethylpiperidin-1-yl)-3-(2-hydroxy-4,6-dimethoxyphenyl)propan-1-one], on RORγt (setting [1]), the IC50 was 1 to 10 µM. Further, the Emax on RORγt is 95.4%.

For `COc1cc(O)c(C(CC(=O)N2CCCC(COc3ccc(F)cc3)C2)c2ccc3c(c2)OCO3)c(OC)c1` (stereo not shown) [Compound 19], the 50% inhibitory concentration (IC50) against RORγt (setting [1]) fell in the range of 11 to 50 µM. The Emax on RORγt is 47.5%.

For the compound `COc1cc(OC)c(C(c2ccccc2)C(C)(C)C(=O)N2CC(C)CC(C)C2)c(OC)c1` (stereo not shown) [Compound 149, 1-(3,5-Dimethylpiperidin-1-yl)-2,2-dimethyl-3-phenyl-3-(2,4,6-trimethoxyphenyl)propan-1-one], the IC50 against RORγt (setting [1]) and at RORγt (setting [2]) was 1 to 10 µM in each case. Further, on RORγt, the Emax was determined as 93.8%.

`COc1cc(O)c(C(CC(=O)N2CCCC(C)C2)c2ccc3ccccc3c2)c(OC)c1` (stereo not shown) [Compound 65]: the half-inhibitory concentration (IC50) against RORγt (setting [1]) and against RORγt (setting [2]) was 1 to 10 µM in each case. Further, the Emax on RORγt is 92.4%.

Take `COc1cc(O)c(C(CC(=O)NC2CCC(C)CC2)c2ccc3c(c2)OCO3)c(OC)c1` (stereo not shown) [Compound 23]: at RORγt (setting [1]), the IC50 lay within 11 to 50 µM. The Emax on RORγt was determined as 76.8%.

As for `COc1cc(O)c(C(CC(=O)N2CCCC(C(F)(F)F)C2)c2ccc3c(c2)OCO3)c(OC)c1` (stereo not shown) [Compound 43], the pIC50 with mouse Th17 polarization is 5.00 to 6.00.

`COc1ccc2ccccc2c1C(c1ccc(F)cc1)C(C)(C)C(=O)N1CC(C)OC(C)C1` (stereo not shown) [Compound 156] came in with a half-inhibitory concentration (IC50) on RORγt (setting [1]) of 11 to 50 µM. Further, the Emax on RORγt came to 99.9%.

In the case of `COc1cc(O)c(C(CC(=O)N2CC(C)CC(C)C2)c2cccc(C(=O)O)c2)c(OC)c1` (stereo not shown) [Compound 101, 3-(3-(3,5-Dimethylpiperidin-1-yl)-1-(2-hydroxy-4,6-dimethoxyphenyl)-3-oxopropyl)benzoic acid], on RORγt (setting [1]), the IC50 lay in the range of 1 to 10 µM.

Compound `COc1cc(O)c(C(CC(=O)N2CC(C)CC(C)C2)c2cc(F)c(F)c(F)c2)c(OC)c1` (stereo not shown) [Compound 109, 1-(3,5-Dimethylpiperidin-1-yl)-3-(2-hydroxy-4,6-dimethoxyphenyl)-3-(3,4,5-trifluorophenyl)propan-1-one] showed an IC50 against RORγt (setting [1]) of 1 to 10 µM. For the same compound, the Emax on RORγt is 97.3%.

The compound `COc1cc(O)c(C(CC(=O)NCc2ccccc2)c2ccc3c(c2)OCO3)c(OC)c1` (stereo not shown) [Compound 21] had an IC50 on RORγt (setting [1]) greater than 50 µM.

Compound `CC1CC(C)CN(C(=O)CC(c2ccc(-n3cncn3)cc2)c2ccc3c(c2)OCO3)C1` (stereo not shown) [Compound 141, 3-(4-(1H-1,2,4-Triazol-1-yl)phenyl)-3-(benzo[d][1,3]dioxol-5-yl)-1-(3,5-dimethylpiperidin-1-yl)propan-1-one] displayed a concentration for half-maximal inhibition (IC50) against RORγt (setting [1]) of 11 to 50 µM. For the same compound, on RORγt, the Emax came to 106%.

On RORγt (setting [1]), `COc1cc(O)c(C(CC(=O)N2CCCC(C)C2)c2ccc3c(c2)OCO3)c2ccccc12` (stereo not shown) [Compound 129] displayed an IC50 of 11 to 50 µM. For the same compound, the Emax on RORγt is 76.9%.

As to `COc1cc(O)c(C(CC(=O)N2CC(C)CC(C)C2)c2cc(Cl)cc(Cl)c2)c(OC)c1` (stereo not shown) [Compound 97], at RORγt (setting [1]), the concentration for half-maximal inhibition (IC50) is 11 to 50 µM. Besides, on RORγt, the Emax stood at 61.5%.

On RORγt (setting [1]), `COc1ccccc1C(CC(=O)N1CCCC(C)C1)c1ccccc1` (stereo not shown) [Compound 52] yielded a 50% inhibitory concentration (IC50) greater than 50 µM.

For `COc1ccc(C(CC(=O)Nc2ccc(F)cc2)c2ccccc2)cc1` (stereo not shown) [Compound 46], the IC50 on RORγt (setting [1]) is greater than 50 µM.

As for `COc1ccccc1C(CC(=O)Nc1ccc(F)cc1)c1ccccc1` (stereo not shown) [Compound 50], the IC50 against RORγt (setting [1]) was greater than 50 µM.
